From patent publication US20080145313A1, “Compositions and Methods for the Treatment and Prevention of Neoplastic Disorders” (Genesis Research & Development Corporation Limited, priority 2006, published 2008)
Marks after values point to notes of the source that are not given here.

Assays:
wt HCT-116 cells = assay: Growth inhibition of siRNA-transfected wt HCT-116 cells, SYBR Green I DNA content; format: cell-based; details: standardized against control siRNA
Procedure: (§1) A549 cells (human lung cancer cell line; ATCC No. CCL-185), SK-MeI-5 cells (human melanoma cell line; ATCC No. HTB-70), MCF-7 cells (human adenocarcinoma cell line; ATCC No. HTB-22), HCT-116 cells (colorectal carcinoma; ATCC CCL-247) and HCT-116 p53 null cells (derived from ATCC No. CCL-247; Bunz et al., Science 282:1497-1501, 1998) were cultured in RPMI 1640 medium with 10% v/v heat-inactivated fetal calf serum (FCS). Cells were seeded at a density of 5×10^4 cells/cm^2 in multi-well tissue culture plates. Sequences of Stealth™ siRNA duplexes (Invitrogen) targeting human ribonucleotide reductase subunit 1 (SEQ ID NO: 22) and subunit 2 (SEQ ID NO; 38) are given in SEQ ID NO: 4830-4832 (DNA), and SEQ ID NO: 5136-5138 (RNA) for RRM1, and SEQ ID NO: 5306-5308 (DNA), and SEQ ID NO: 5303-5305 (RNA) for RRM2. siRNAs were transfected at different concentrations into cells using Lipofectamine™ RNAiMAX transfection reagent (Invitrogen). Non-specific siRNA (SEQ ID NO: 4804 and 4805 (DNA), and SEQ ID NO: 5301 and 5302 (RNA)) were used as controls. The cellular DNA content was measured using a SYBR Green I-based fluorometric assay at 24, 48, 72 and 96 hours after transfection (120 hours for the MCF-7 cells), as follows. At the indicated time points following reverse transfection, cells were harvested and frozen at −80° C. overnight. Cells were thawed and cell lysis buffer (phosphate-buffered saline (PBS) containing 1% Triton X-100, pH 7) and SYBR Green I (1:10^5 V/V; Invitrogen) was added to the wells and incubated overnight in the dark at 4° C.
(§2) The following day, cell lysates were mixed thoroughly, and DNA fluorescence was measured with a Wallac Victor^2 plate reader (Turku, Finland) set at an excitation frequency of 485 nm and measuring emission at 535 nm.
(§3) To determine the effect of the p53-status of cells on RRM1 and RRM2 knockdown, growth inhibition of wild type (wt) HCT-116 and p53 null HCT-116 cells by RRM1 and RRM2-targeted siRNA were determined. Cells were reverse transfected with 1.0 and 10 nM RRM1-3 (SEQ ID NO: 4832 (DNA), and SEQ ID NO: 5138 (RNA)), 1.0 and 10 nM RRM2-2 (SEQ ID NO: 5307 (DNA), and SEQ ID NO: 5304 (RNA)) or 10 nM control siRNA (SEQ ID NO: 4804 (DNA), and SEQ ID NO: 5301 (RNA)), and growth measured daily for up to 4 days post transfection.
(§4) siRNA-mediated RNAi was also determined on a panel of different cell lines. A549, SK-MeI-5, wt HCT-116, HCT-116−/−p53 and MCF-7 cells were transfected with 10 nM siRNAs targeting YBX-1 and growth inhibition determined as described above. The YBX1 siRNAs are given in SEQ ID NO: 4981 to 4985 (DNA) and SEQ ID NO: 5276-5280 (RNA). A non-specific siRNA (SEQ ID NO: 4804 (DNA) and SEQ ID NO: 5301 (RNA)) was used as control. Growth inhibition by the siRNAs, given in Table 14, was standardized against the inhibition obtained with the control siRNA.
HCT-116 and A549 cells were transfected with 0.1, 1.0 and 10 nM siRNA targeting TYMS and DHFR (SEQ ID NO: 4833 to 4838 (DNA), and SEQ ID NO: 5139-5144 (RNA)) using Lipofectamine™ RNAiMAX and incubated for 96 h, in either normal fetal calf serum or serum dialyzed to remove low molecular weight molecules (cut-off 10 kDa). Growth of cells was measured by measuring the total DNA content per well using the SYBR Green assay as described above, and values are given as the percentage of the averaged control values. […] Inhibition increased with increasing siRNA concentration, which was not observed with a non-specific control siRNA. […]

HCT-116 p53 null cells = assay: Growth inhibition of siRNA-transfected p53 null HCT-116 cells, SYBR Green I DNA content; format: cell-based; details: for growth inhibition, HCT-116 −/−p53 cells: standardized against control siRNA
Procedure: as §1, §2, §3, §4

[1] = test system: target transcript mRNA in A549 cells; assay: Level of mRNA of target transcript in A549 cells by quantitative RT-PCR (Tables 12 and 13); format: cell-based, human; details: 24 h post-transfection; for mRNA knockdown of transporter gene target transcript, 10 nM: 10 nM siRNA
Method in brief: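 A549 cells were transfected with siRNA at 0.1, 1.0 and 10 nM. RNA was extracted 24 h later, reverse-transcribed with random primers, and target mRNA quantified by SYBR Green qRT-PCR. Values were normalised to housekeeping genes HPRT and Lamin.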

| Substance | growth inhibition, wt HCT-116 cells (wt HCT-116 cells; 1 nM siRNA) | growth inhibition, HCT-116 −/−p53 cells (HCT-116 p53 null cells; 1 nM siRNA) | mRNA knockdown of transporter gene target transcript, 0.1 nM ([1]; 0.1 nM siRNA) | mRNA knockdown of transporter gene target transcript, 1 nM ([1]; 1 nM siRNA) | mRNA knockdown of transporter gene target transcript, 10 nM [1] | other results |
| --- | --- | --- | --- | --- | --- | --- |
| SEQ ID NO: 4985: siRNA targeting YBX1 (chain 1 CAGCCTAGAGAGGACGGCAATGAAG; chain 2 CAGCCUAGAGAGGACGGCAAUGAAG; chemistry not given here; one strand in two spellings) | −* (No inhibition) | −* (No inhibition) |  |  |  |  |
| SEQ ID NO: 4984: siRNA targeting YBX1 (chain 1 CAAGGTAGACCAGTGAGGCAGAATA; chain 2 CAAGGUAGACCAGUGAGGCAGAAUA; chemistry not given here; one strand in two spellings) | +* (At least 20% inhibition) | +* (At least 20% inhibition) |  |  |  |  |
| SEQ ID NO: 4982: siRNA targeting YBX1 (chain 1 TTTGCTGGTAATTGCGTGGAGGACC; chain 2 UUUGCUGGUAAUUGCGUGGAGGACC; chemistry not given here; one strand in two spellings) |  |  |  |  |  | growth inhibition, wt HCT-116 cells (wt HCT-116 cells; 10 nM siRNA): +++ (At least 70% inhibition); growth inhibition, HCT-116 −/−p53 cells (HCT-116 p53 null cells; 10 nM siRNA): +++ (At least 70% inhibition) |
| SEQ ID NO: 4932: siRNA targeting SLC29A1 (ENT1) (chain 1 TGATAAAGTAGCCGAAGGCACTTTC; chain 2 UGAUAAAGUAGCCGAAGGCACUUUC; chemistry not given here; one strand in two spellings) |  |  | ++ (70-90% mRNA knockdown) | ++ (70-90% mRNA knockdown) | ++ (70-90% mRNA knockdown) |  |
| SEQ ID NO: 4924: siRNA targeting SLC16A1 (MCT1) (chain 1 TTAGACTTATCTTTCCCTGCCTTGG; chain 2 UUAGACUUAUCUUUCCCUGCCUUGG; chemistry not given here; one strand in two spellings) |  |  | + (50-70% mRNA knockdown) | ++ (70-90% mRNA knockdown) | ++ (70-90% mRNA knockdown) |  |
| SEQ ID NO: 5307: Stealth siRNA targeting RRM2 (chain 1 AATTCATCCCAATGAGCTTCACAGG; chain 2 AAUUCAUCCCAAUGAGCUUCACAGG; Stealth siRNA, chemical pattern not given here; one strand in two spellings) |  |  |  |  |  | mRNA knockdown of energy and metabolism gene target transcript, 0.1 nM ([1]; 0.1 nM siRNA): + (50-70% mRNA knockdown); mRNA knockdown of energy and metabolism gene target transcript, 1 nM ([1]; 1 nM siRNA): ++ (70-90% mRNA knockdown); growth inhibition, p53 null HCT-116 (HCT-116 p53 null cells; 1.0 and 10 nM siRNA, up to 4 days, compared with p53 wt): more growth inhibitory |
